Results: publication PMC7647111, “Antileishmanial compounds from Connarus suberosus: Metabolomics, isolation and mechanism of action” (PLoS ONE, 2020)
Where “and” joins values, the source holds several entries; their conditions need not be identical. Identical values can stand only once.

Key:
[1] = tested on: L. infantum promastigotes; assay: Antiproliferation assay: L. infantum promastigotes (72 h), MTT; assay type: cell-based, Leishmania infantum (MCAN/BR/2008/1112); conditions: Leishmania infantum, 72 h, 72 h exposure
Procedure: Leishmania amazonensis promastigotes (IFLA/BR/1967/PH8) for the 24 h exposure test were cultivated in RPMI 1640, supplemented with 20% v/v heat inactivated fetal bovine serum (FBS) and incubated at 26°C until near the end of the log growth phase. Leishmania amazonensis (IFLA/BR/1967/PH8) and L. infantum (MCAN/BR/2008/1112) promastigotes used in the 72 h exposure test were cultivated in Warren’s medium (containing brain heart infusion- BHI plus hemin and folic acid), supplemented with 10% FBS, 0.1% of the antibiotics: 100 UI/mL penicillin G and 0.1 mg/mL streptomycin. Leishmania amazonensis (IFLA/BR/1967/PH8) transfected with the red fluorescent protein (RFP) gene was cultured in M199 medium (containing 0.1 mmol/L adenine, 40 mmol/L hepes, 0.0005% hemin and 0.0002% biotin), supplemented with 10% FBS, and 0.1% of the antibiotic. Parasites were maintained at 25°C in a BOD incubator.
Extracts and isolated compounds were tested against L. amazonensis promastigotes (IFLA/BR/1967/PH8 strain - 2x10^5 cells/well) and L. infantum promastigotes (MCAN/BR/2008/1112 strain - 3x10^5 cells/well). The samples were solubilized in DMSO (<1%), serially diluted (100 μg/mL to 1.56 μg/mL) and tested in a 96-well plate to obtain a dose-response curve. Miltefosine and DMSO were used as positive and negative controls, respectively. After 72 h, 10 μL of 3-(4,5-dimethylthiazol-2-yl)-2,5-diphenyl tetrazolium bromide (5 mg/mL—MTT, Sigma-Aldrich) solution was added to each well and the plate returned to the incubator for an additional 4 h. To halt the reaction, 100 μL acidified isopropanol was added to each well. Plates were read at 570 nm in a microplate reader (Multiskan MS, LabSystems Oy, Helsinki, Finland).

L. infantum amastigotes = L. infantum amastigotes assay (Giemsa, infection index); assay type: cell-based, Leishmania infantum
Procedure: Peritoneal macrophages (6 x 10^5 cells) were plated on round glass coverslips within 24-well plates in RPMI 1640 medium supplemented with FBS and 20 mM L-glutamine, pH 7.2, and incubated for 24 h at 37°C in 5% CO2. Stationary-phase promastigotes (6 x 10^6 cells, at a ratio of 10 parasites per macrophage) were then added to the wells, and cultures incubated for 24 h at 37°C in 5% CO2. Non-internalized parasites were removed by extensive PBS solution washing and infected macrophages subsequently treated with nontoxic concentrations of: compound 3 (6.25 μg/mL to 0.18 μg/mL) or miltefosine (10.0 μg/mL to 0.6 μg/mL, positive control) for 72 h at 37°C in 5% CO2. After compound exposure, cells were fixed with absolute ethanol and stained with Giemsa. A total of 200 macrophages were counted under a light microscope. The infection index was determined by the […] percentage of infected macrophages multiplied by the mean number of amastigotes per macrophage out of 200 macrophages.

[2] = tested on: L. amazonensis promastigotes; assay: Transmission electron microscopy (TEM); assay type: cell-based, Leishmania amazonensis; conditions: 11.4 μM, 24 h
Procedure: Leishmania amazonensis promastigotes (10^7 cells/mL) were treated with compound 3 (11.4 μM) or incubated with controls (medium alone or medium plus 0.01% DMSO) for 24 h at 26°C. The parasites were subsequently washed in PBS, fixed in 2.5% glutaraldehyde (in 0.1 M sodium cacodylate buffer) at pH 7.2 for 45 min at room temperature. After fixation, the specimens were washed three times successively with 0.1 M sodium cacodylate buffer, and postfixed in 1% osmium tetroxide, 0.8% potassium ferricyanide, and 5 mM of the CaCl2 in 0.1 M of the sodium cacodylate buffer (0.1 M, pH 7.2). Dehydration was performed in acetone, followed by the embedding resin (Spur, Sigma-Aldrich®). Ultrathin sections were contrasted with uranyl acetate and lead citrate and observed under a transmission electron microscope (JEOL 1011).

[3] = tested on: L. amazonensis promastigotes; assay: Mitochondrial membrane potential (MitoTracker); assay type: cell-based, Leishmania amazonensis; conditions: 24 h; 2 at 33.8 μM, 3 at 11.4 μM; FCCP 5.0 μM for 10 min
Procedure: After 24 h of incubation at 25°C, the parasite concentration was adjusted to 5x10^6 cells/mL and stained with 500 nM MitoTracker (Invitrogen, Eugene, OR, USA) in the dark for 40 min at 37°C. After washing twice with PBS, samples were transferred in triplicate to a black 96-well plate, and fluorescence measured in a spectrofluorometer (FLx800, BioTek Instruments, Inc., Winooski, VT, USA) at 540/600 nm excitation/emission. […] Louis, MO, USA) for 10 min were used to obtain maximal mitochondrial depolarization (positive control).

In the case of `C=C[C@@H](c1cc(CC=C(C)C)ccc1O)c1cc(CC=C(C)C)c(OC)cc1O` [Compound 3, connarin], the IC50 [1] is reported as 5.2 µg/mL and 13.3 µM, the “SI (Selectivity Index)” value (L. infantum amastigotes; L. infantum amastigotes) is reported as 2.4 and the IC50 (L. infantum amastigotes; Leishmania infantum, intracellular, 72 h) is reported as 7.7 µM. The “ultrastructural modification (TEM)” value [2] was “showed lipid bodies and the presence of vacuoles” and the “reduction in mitochondrial membrane potential (ΔΨm)” value [3] was 26.5%.
